Laboratory results published in ChEMBL document CHEMBL5649169 (ChemMedChem, 2018).

Assays:
Nucleolin (Homo sapiens) = Nucleolin (Homo sapiens) (UniProt P19338)
[1] = molecular target: Large ribosomal subunit protein eL38 (Homo sapiens) (UniProt P63173)
[2] = molecular target: T-complex protein 1 subunit delta (Homo sapiens) (UniProt P50991)
[3] = molecular target: Prelamin-A/C (Homo sapiens) (UniProt P02545)
[4] = molecular target: CCR4-NOT transcription complex subunit 1 (Homo sapiens) (UniProt A5YKK6)
[5] = molecular target: CDGSH iron-sulfur domain-containing protein 2 (Homo sapiens) (UniProt Q8N5K1)
[6] = molecular target: Membrane-associated progesterone receptor component 1 (Homo sapiens) (UniProt O00264)
Cullin-1 (Homo sapiens) = Cullin-1 (Homo sapiens) (UniProt Q13616)
[7] = molecular target: Cyclin-dependent kinase 3 (Homo sapiens) (UniProt Q00526)
[8] = molecular target: Transcriptional repressor p66-alpha (Homo sapiens) (UniProt Q86YP4)
Wolframin (Homo sapiens) = Wolframin (Homo sapiens) (UniProt O76024)
[9] = molecular target: Surfeit locus protein 4 (Homo sapiens) (UniProt O15260)
[10] = molecular target: Translocation protein SEC63 homolog (Homo sapiens) (UniProt Q9UGP8)
[11] = molecular target: COP9 signalosome complex subunit 2 (Homo sapiens) (UniProt P61201)
[12] = molecular target: NADH dehydrogenase [ubiquinone] 1 alpha subcomplex assembly factor 4 (Homo sapiens) (UniProt Q9P032)
[13] = molecular target: E3 ubiquitin-protein ligase UBR4 (Homo sapiens) (UniProt Q5T4S7)
[14] = molecular target: Heme oxygenase 2 (Homo sapiens) (UniProt P30519)
[15] = molecular target: Fatty acyl-CoA reductase 1 (Homo sapiens) (UniProt Q8WVX9)
[16] = molecular target: Nucleolar complex protein 2 homolog (Homo sapiens) (UniProt Q9Y3T9)
[17] = molecular target: Mitogen-activated protein kinase kinase kinase 3 (Homo sapiens) (UniProt Q99759)
[18] = molecular target: RNA-binding protein 28 (Homo sapiens) (UniProt Q9NW13)
[19] = molecular target: Holocytochrome c-type synthase (Homo sapiens) (UniProt P53701)
[20] = molecular target: Extended synaptotagmin-1 (Homo sapiens) (UniProt Q9BSJ8)
[21] = molecular target: Peroxiredoxin-2 (Homo sapiens) (UniProt P32119)
[22] = molecular target: Mitochondrial carrier homolog 2 (Homo sapiens) (UniProt Q9Y6C9)
[23] = molecular target: Microtubule-associated protein RP/EB family member 2 (Homo sapiens) (UniProt Q15555)
Anamorsin (Homo sapiens) = Anamorsin (Homo sapiens) (UniProt Q6FI81)
[24] = molecular target: AP-2 complex subunit alpha-1 (Homo sapiens) (UniProt O95782)
[25] = molecular target: Proteasome activator complex subunit 2 (Homo sapiens) (UniProt Q9UL46)
[26] = molecular target: Aminopeptidase B (Homo sapiens) (UniProt Q9H4A4)
[27] = molecular target: Importin-5 (Homo sapiens) (UniProt O00410)
[28] = molecular target: NADH dehydrogenase [ubiquinone] 1 beta subcomplex subunit 10 (Homo sapiens) (UniProt O96000)
[29] = molecular target: H/ACA ribonucleoprotein complex subunit DKC1 (Homo sapiens) (UniProt O60832)
[30] = molecular target: Tyrosine-protein kinase SYK (Homo sapiens) (UniProt P43405)
[31] = molecular target: Gamma-tubulin complex component 3 (Homo sapiens) (UniProt Q96CW5)
[32] = molecular target: Insulin-like growth factor 1 receptor (Homo sapiens) (UniProt P08069)
[33] = molecular target: GTP-binding protein 4 (Homo sapiens) (UniProt Q9BZE4)
[34] = molecular target: Synaptophysin-like protein 1 (Homo sapiens) (UniProt Q16563)
[35] = molecular target: Multifunctional protein CAD (Homo sapiens) (UniProt P27708)
[36] = molecular target: ATP-binding cassette sub-family E member 1 (Homo sapiens) (UniProt P61221)
[37] = molecular target: Kinetochore-associated protein 1 (Homo sapiens) (UniProt P50748)
[38] = molecular target: DNA damage-binding protein 1 (Homo sapiens) (UniProt Q16531)
[39] = molecular target: Aurora kinase B (Homo sapiens) (UniProt Q96GD4)
[40] = molecular target: B-cell receptor-associated protein 31 (Homo sapiens) (UniProt P51572)
[41] = molecular target: Large ribosomal subunit protein eL30 (Homo sapiens) (UniProt P62888)
[42] = molecular target: Nucleosome assembly protein 1-like 1 (Homo sapiens) (UniProt P55209)
[43] = molecular target: ATP synthase F(1) complex subunit beta, mitochondrial (Homo sapiens) (UniProt P06576)
Further: assay method not described here.

Heme oxygenase 2 (Homo sapiens), sequence (P30519 whole entry): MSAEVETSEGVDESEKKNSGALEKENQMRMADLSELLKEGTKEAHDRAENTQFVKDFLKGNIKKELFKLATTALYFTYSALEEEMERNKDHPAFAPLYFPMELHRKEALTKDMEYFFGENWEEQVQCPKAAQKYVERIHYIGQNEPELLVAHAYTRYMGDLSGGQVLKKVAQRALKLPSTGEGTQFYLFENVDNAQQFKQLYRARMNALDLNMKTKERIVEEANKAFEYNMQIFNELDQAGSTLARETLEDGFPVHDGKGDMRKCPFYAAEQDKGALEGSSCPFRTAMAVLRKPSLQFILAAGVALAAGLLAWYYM
Aurora kinase B (Homo sapiens), sequence (Q96GD4 whole entry): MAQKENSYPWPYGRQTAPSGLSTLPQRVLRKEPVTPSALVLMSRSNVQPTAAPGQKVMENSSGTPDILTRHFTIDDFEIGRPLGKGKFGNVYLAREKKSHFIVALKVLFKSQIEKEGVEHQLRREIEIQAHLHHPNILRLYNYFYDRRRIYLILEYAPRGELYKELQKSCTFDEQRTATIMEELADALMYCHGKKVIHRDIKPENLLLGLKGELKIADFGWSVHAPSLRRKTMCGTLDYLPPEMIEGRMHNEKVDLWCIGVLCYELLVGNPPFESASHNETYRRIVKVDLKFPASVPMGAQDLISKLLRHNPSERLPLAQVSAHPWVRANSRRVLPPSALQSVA
Gamma-tubulin complex component 3 (Homo sapiens), sequence (Q96CW5 whole entry, one chain of several): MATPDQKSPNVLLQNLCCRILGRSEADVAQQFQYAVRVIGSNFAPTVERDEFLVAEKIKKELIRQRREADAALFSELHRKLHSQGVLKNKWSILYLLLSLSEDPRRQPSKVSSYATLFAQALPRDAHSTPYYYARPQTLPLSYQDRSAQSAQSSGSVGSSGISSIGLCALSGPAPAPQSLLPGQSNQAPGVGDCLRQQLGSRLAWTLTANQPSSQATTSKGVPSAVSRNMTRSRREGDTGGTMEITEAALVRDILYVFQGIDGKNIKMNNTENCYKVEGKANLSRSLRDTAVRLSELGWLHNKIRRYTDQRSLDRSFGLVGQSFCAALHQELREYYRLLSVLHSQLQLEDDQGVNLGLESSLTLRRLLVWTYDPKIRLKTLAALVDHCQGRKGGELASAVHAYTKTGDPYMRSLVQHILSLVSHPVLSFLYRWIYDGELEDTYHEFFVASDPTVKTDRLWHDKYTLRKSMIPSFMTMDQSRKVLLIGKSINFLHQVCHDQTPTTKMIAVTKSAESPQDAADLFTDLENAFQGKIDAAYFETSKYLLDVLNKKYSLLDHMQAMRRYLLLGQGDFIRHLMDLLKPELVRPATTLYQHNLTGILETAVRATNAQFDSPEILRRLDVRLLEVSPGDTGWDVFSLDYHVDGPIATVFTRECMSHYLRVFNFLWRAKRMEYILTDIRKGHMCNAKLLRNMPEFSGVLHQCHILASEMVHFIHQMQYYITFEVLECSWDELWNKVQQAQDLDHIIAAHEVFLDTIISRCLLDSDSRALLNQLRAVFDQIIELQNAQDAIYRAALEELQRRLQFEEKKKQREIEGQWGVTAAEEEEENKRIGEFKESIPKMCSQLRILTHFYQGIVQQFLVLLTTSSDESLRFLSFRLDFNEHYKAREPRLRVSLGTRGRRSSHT
Transcriptional repressor p66-alpha (Homo sapiens), sequence (Q86YP4 whole entry): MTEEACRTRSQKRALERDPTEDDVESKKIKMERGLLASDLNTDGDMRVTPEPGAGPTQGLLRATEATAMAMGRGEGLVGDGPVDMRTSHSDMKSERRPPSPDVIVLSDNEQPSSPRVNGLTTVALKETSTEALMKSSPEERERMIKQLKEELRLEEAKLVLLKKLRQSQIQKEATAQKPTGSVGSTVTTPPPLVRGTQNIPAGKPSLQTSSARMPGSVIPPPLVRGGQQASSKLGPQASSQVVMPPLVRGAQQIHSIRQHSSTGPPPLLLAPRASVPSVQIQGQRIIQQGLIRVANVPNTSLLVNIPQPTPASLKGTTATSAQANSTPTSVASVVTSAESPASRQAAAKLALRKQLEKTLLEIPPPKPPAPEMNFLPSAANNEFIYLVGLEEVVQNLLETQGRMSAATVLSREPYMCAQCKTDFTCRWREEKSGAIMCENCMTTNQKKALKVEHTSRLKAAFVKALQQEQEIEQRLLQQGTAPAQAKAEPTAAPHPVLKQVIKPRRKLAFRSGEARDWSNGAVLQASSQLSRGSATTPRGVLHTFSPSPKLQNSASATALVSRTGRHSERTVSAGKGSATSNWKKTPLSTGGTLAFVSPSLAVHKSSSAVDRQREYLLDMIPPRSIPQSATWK
Cyclin-dependent kinase 3 (Homo sapiens), sequence (Q00526 whole entry, looked up): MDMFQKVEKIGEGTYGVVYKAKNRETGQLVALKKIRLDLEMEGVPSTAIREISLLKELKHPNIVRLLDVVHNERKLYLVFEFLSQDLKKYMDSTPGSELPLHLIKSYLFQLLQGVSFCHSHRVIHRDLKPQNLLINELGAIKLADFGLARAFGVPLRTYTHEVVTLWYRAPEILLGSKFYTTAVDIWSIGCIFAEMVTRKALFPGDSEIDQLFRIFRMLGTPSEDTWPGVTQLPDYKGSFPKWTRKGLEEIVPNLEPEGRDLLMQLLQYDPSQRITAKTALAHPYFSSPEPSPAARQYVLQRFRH
Insulin-like growth factor 1 receptor (Homo sapiens), sequence (P08069 31-736 limits assumed): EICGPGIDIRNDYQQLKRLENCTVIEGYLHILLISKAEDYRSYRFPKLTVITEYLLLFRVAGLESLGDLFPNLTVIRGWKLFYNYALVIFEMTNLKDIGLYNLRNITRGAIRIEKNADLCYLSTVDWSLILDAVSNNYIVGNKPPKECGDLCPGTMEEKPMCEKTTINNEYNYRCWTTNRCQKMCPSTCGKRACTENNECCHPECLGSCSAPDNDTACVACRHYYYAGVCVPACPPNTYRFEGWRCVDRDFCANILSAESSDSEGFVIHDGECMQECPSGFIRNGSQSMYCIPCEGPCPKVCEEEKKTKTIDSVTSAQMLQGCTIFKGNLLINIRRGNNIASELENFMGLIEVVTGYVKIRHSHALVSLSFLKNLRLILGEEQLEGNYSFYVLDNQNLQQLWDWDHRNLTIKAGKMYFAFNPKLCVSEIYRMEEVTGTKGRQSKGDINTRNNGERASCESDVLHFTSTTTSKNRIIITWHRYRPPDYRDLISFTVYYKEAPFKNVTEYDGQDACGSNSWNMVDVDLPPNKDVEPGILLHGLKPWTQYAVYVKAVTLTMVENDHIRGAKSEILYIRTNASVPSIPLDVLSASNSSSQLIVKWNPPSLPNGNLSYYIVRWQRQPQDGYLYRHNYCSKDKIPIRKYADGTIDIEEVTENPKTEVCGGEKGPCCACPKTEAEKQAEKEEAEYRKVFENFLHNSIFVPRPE
Insulin-like growth factor 1 receptor (Homo sapiens), sequence (P08069 741-1367 limits assumed): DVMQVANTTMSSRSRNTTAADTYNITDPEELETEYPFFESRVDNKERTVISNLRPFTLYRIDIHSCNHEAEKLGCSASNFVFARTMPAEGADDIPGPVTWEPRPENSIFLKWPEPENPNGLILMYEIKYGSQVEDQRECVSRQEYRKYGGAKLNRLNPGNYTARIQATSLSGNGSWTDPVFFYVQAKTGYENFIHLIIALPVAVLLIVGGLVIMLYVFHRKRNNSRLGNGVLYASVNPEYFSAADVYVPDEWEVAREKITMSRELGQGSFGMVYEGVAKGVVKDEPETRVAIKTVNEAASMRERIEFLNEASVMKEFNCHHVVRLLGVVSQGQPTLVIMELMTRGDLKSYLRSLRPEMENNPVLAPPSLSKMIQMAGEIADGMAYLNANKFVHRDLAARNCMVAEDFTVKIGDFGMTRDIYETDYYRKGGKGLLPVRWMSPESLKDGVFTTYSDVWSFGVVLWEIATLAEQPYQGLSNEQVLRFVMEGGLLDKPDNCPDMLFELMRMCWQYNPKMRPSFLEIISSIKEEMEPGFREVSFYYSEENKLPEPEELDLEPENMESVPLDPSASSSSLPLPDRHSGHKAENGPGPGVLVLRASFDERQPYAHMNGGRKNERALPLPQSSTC
Wolframin (Homo sapiens), sequence (O76024 whole entry): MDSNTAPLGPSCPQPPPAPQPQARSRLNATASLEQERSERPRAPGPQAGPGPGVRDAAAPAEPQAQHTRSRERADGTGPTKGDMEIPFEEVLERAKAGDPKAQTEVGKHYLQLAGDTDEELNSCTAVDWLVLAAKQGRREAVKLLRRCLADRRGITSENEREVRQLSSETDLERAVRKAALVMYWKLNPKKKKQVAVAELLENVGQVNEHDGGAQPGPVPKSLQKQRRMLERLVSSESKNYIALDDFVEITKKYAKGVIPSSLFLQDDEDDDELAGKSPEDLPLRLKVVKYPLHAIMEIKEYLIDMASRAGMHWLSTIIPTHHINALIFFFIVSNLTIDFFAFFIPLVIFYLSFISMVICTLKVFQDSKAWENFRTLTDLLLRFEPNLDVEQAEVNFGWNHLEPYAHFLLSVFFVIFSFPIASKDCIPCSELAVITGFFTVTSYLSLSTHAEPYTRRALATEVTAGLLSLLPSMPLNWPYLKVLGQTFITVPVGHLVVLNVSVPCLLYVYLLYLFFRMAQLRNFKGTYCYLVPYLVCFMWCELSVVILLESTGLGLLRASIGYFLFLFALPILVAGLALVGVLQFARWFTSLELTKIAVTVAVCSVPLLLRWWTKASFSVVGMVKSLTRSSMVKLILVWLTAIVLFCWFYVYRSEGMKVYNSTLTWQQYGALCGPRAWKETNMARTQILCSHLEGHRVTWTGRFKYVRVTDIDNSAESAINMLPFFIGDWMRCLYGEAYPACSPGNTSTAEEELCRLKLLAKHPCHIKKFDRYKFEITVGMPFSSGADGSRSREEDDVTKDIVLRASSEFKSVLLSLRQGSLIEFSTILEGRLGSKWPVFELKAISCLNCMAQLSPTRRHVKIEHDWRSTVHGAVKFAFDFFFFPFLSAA
Synaptophysin-like protein 1 (Homo sapiens), sequence (Q16563 whole entry): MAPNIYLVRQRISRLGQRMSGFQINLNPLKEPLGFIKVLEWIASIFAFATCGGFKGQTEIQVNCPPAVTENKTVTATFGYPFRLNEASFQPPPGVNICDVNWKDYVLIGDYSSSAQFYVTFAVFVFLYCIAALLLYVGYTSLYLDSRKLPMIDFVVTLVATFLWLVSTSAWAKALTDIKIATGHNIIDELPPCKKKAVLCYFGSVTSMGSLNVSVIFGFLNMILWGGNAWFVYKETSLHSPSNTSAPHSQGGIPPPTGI

Compound: Cc1ccc(C(=O)Nc2cccc(C(F)(F)F)c2)cc1Nc1nc(-c2cccnc2)nc2c1cnn2C
- ED50 (Nucleolin (Homo sapiens)): 2.79 µM
- ED50 [1]: 8.36 µM
- ED50 [2]: 1.63 µM
- ED50 [3]: 5.41 µM
- ED50 [4]: 0.0688 µM
- ED50 [5]: 3.1 µM
- ED50 [6]: 0.651 µM
- ED50 (Cullin-1 (Homo sapiens)): 0.000443 µM
- ED50 [7]: 0.134 µM
- ED50 [8]: 3.46 µM
- ED50 (Wolframin (Homo sapiens)): 2.67 µM
- ED50 [9]: 0.017 µM
- ED50 [10]: 95700 µM
- ED50 [11]: 24.6 µM
- ED50 [12]: 0.0015 µM
- ED50 [13]: 0.00366 µM
- ED50 [14]: 4.08 µM
- ED50 [15]: 4.69 µM
- ED50 [16]: 0.637 µM
- ED50 [17]: 12.1 µM
- ED50 [18]: 0.021 µM
- ED50 [19]: 0.0888 µM
- ED50 [20]: 0.00937 µM
- ED50 [21]: 8 µM
- ED50 [22]: 0.0279 µM
- ED50 [23]: 0.0302 µM
- ED50 (Anamorsin (Homo sapiens)): 0.0673 µM
- ED50 [24]: 0.217 µM
- ED50 [25]: 1.06 µM
- ED50 [26]: 0.664 µM
- ED50 [27]: 0.00445 µM
- ED50 [28]: 1.17 µM
- ED50 [29]: 3.14 µM
- ED50 [30]: 3.85 µM
- ED50 [31]: 10.2 µM
- ED50 [32]: 0.0179 µM
- ED50 [33]: 2.95 µM
- ED50 [34]: 6.43 µM
- ED50 [35]: 0.00265 µM
- ED50 [36]: 13.8 µM
- ED50 [37]: 14 µM
- ED50 [38]: 0.122 µM
- ED50 [39]: 11.6 µM
- ED50 [40]: 0.0691 µM
- ED50 [41]: 0.0257 µM
- ED50 [42]: 3.1 µM
- ED50 [43]: 0.882 µM

Compound: Cc1ccc(C(=O)Nc2cccc(C(F)(F)F)c2)cc1Nc1nc(-c2cccnc2)nc2nn(C)cc12
- ED50 (Nucleolin (Homo sapiens)): 30.3 µM
- ED50 [1]: 0.0274 µM
- ED50 [2]: 26.8 µM
- ED50 [3]: 2.4 µM
- ED50 [4]: 0.0203 µM
- ED50 [5]: 0.0591 µM
- ED50 [6]: 23.2 µM
- ED50 (Cullin-1 (Homo sapiens)): 0.0051 µM
- ED50 [7]: 511 µM
- ED50 [8]: 0.041 µM
- ED50 (Wolframin (Homo sapiens)): 2.66 µM
- ED50 [9]: 0.0151 µM
- ED50 [10]: 0.0344 µM
- ED50 [11]: 79.4 µM
- ED50 [12]: 1.82 µM
- ED50 [13]: 0.593 µM
- ED50 [14]: 0.02 µM
- ED50 [15]: 113 µM
- ED50 [16]: 627 µM
- ED50 [17]: 0.0358 µM
- ED50 [18]: 1.75 µM
- ED50 [19]: 0.144 µM
- ED50 [20]: 6850 µM
- ED50 [21]: 6.92 µM
- ED50 [22]: 0.13 µM
- ED50 [23]: 35 µM
- ED50 (Anamorsin (Homo sapiens)): 78.8 µM
- ED50 [24]: 4.78 µM
- ED50 [25]: 9.77 µM
- ED50 [26]: 0.0418 µM
- ED50 [27]: 0.342 µM
- ED50 [28]: 0.0999 µM
- ED50 [29]: 5.99 µM
- ED50 [30]: 0.216 µM
- ED50 [31]: 0.00173 µM
- ED50 [32]: 8.2 µM
- ED50 [33]: 0.593 µM
- ED50 [34]: 0.0536 µM
- ED50 [35]: 0.00448 µM
- ED50 [36]: 0.000362 µM
- ED50 [37]: 0.0543 µM
- ED50 [38]: 0.139 µM
- ED50 [39]: 0.128 µM
- ED50 [40]: 1.7 µM
- ED50 [41]: 1.58 µM
- ED50 [42]: 147 µM
- ED50 [43]: 2.31 µM
